Assay results taken from patent US8053212B1, “Non-standard nucleoside analogs with reduced epimerization” (priority 2004, dated 2011).

Experiments:
[1] = Epimerization at neutral pH followed by 1H NMR in D2O; type: physicochemical; settings: room temperature, after one week
Method: To measure the rate of epimerization of the nucleoside at neutral pH, a sample was dissolved in D2O and stored at room temperature. The ^1H NMR was measured after several time intervals. […] In particular, the NMR signal arising from H-6 of the heterocycle remained unchanged.

[2] = not given; remark: listed apart in the source

"end" value: fraction of starting material remaining at end of reaction (buffer, 336 h, pH 2)	change of 1H NMR spectrum (epimerization) [1]	fraction protonated at physiological pH [2] [%]	pseudo first order rate constant of initial epimerization, kpH2 (pH 2.0, 37° C., aqueous)	slope of replot of logk versus pH (pH 2.0 to 5.0, 37° C.)	pseudo first order rate constant of initial epimerization, kpH5 (pH 5.0, 37° C., aqueous)	epimerization at high pH (pH 11.0, 23° C., 14 days, HPLC)	SMILES
0.09	–	–	–	–	–	–	Nc1[nH]c(=O)c([C@H]2C[C@H](O)[C@@H](CO)O2)cc1[N+](=O)[O-] [nucleoside 4, 6-amino-5-nitro-3-(1′-beta-D-2′-deoxyribofuranosyl)-2(1H)-pyridone]
–	did not change	> 80	≈ 10^−4 s^−1	−0.971	≈ 2×10^−7 s^−1	no epimerization was detected	Nc1[nH]c(=O)c([C@H]2C[C@H](O)[C@@H](CO)O2)cc1[N+](=O)[O-]
